Results taken from ChEMBL document CHEMBL3259715, “Shuttle-cargo fusion molecules of transport peptides and the hD2/3 receptor antagonist fallypride: a feasible approach to preserve ligand-receptor binding?” (J Med Chem, 2014).
Peptide text beside a SMILES is read from it. * marks the point of attachment. X1 = C=CCN1CCC[C@H]1CNC(=O)c1cc(CCCSC2CC(=O)N(CCCCCC(=O)*)C2=O)cc(OC)c1OC

Target: D(2) dopamine receptor (Homo sapiens, UniProt P14416)
Test: Displacement of [3H]spiperone from human D2 receptor transfected in HEK cells
Format: cell-based, HEK293

Chain of D(2) dopamine receptor (P14416 whole entry): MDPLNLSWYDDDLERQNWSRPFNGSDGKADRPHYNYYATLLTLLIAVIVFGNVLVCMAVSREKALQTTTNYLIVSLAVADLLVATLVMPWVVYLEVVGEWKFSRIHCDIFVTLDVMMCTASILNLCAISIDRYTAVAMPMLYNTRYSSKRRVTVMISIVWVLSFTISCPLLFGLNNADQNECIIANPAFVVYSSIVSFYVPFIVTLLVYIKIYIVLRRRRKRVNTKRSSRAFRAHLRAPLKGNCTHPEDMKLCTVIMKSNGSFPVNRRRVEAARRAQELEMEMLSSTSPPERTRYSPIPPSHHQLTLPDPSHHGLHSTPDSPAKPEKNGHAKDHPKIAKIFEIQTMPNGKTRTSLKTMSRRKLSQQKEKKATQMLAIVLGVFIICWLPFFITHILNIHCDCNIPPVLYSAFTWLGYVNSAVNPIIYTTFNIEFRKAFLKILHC

Row | Ki | SMILES
1 | 42.8 nM | C=CCN1CCC[C@H]1CNC(=O)c1cc(CCCSC2CC(=O)N(CCCCCC(=O)NCCOCCOCCOCCOCCOCCOCCOCCOCCC(=O)N[C@H](C(=O)N[C@@H](Cc3ccccc3)C(=O)N[C@@H](Cc3ccccc3)C(=O)N[C@@H](Cc3ccc(O)cc3)C(=O)NCC(=O)NCC(=O)N[C@@H](CO)C(=O)N[C@@H](CCCNC(=N)N)C(=O)NCC(=O)N[C@@H](CCCCNC(=O)CN3CCN(CC(=O)O)CCN(CC(=O)O)CCN(CC(=O)O)CC3)C(=O)N[C@@H](CCCNC(=N)N)C(=O)N[C@@H](CC(N)=O)C(=O)N[C@@H](CC(N)=O)C(=O)N[C@@H](Cc3ccccc3)C(=O)N[C@@H](CCCCN)C(=O)N[C@H](C(=O)N[C@@H](CCC(=O)O)C(=O)N[C@@H](CCC(=O)O)C(=O)N[C@@H](Cc3ccc(O)cc3)C(=O)O)[C@@H](C)O)[C@@H](C)O)C2=O)cc(OC)c1OC (stereo partly drawn)
2 | 10.3 nM | C=CCN1CCC[C@H]1CNC(=O)c1cc(CCCSC2CC(=O)N(CCCCCC(=O)N[C@@H](Cc3cnc[nH]3)C(=O)N[C@@H](C)C(=O)N[C@H](C(=O)N[C@@H](Cc3ccc(O)cc3)C(=O)N3CCC[C@H]3C(=O)N[C@@H](CCCNC(=N)N)C(=O)N[C@@H](Cc3cnc[nH]3)C(=O)O)[C@@H](C)CC)C2=O)cc(OC)c1OC (stereo partly drawn)
3 | 28.4 nM | C=CCN1CCC[C@H]1CNC(=O)c1cc(CCCSC2CC(=O)N(CCCCCC(=O)NCCCC(=O)N[C@@H](Cc3cnc[nH]3)C(=O)N[C@@H](C)C(=O)N[C@H](C(=O)N[C@@H](Cc3ccc(O)cc3)C(=O)N3CCC[C@H]3C(=O)N[C@@H](CCCNC(=N)N)C(=O)N[C@@H](Cc3cnc[nH]3)C(=O)O)[C@@H](C)CC)C2=O)cc(OC)c1OC (stereo partly drawn)
4 | 7.31 nM | C=CCN1CCC[C@H]1CNC(=O)c1cc(CCCSC2CC(=O)N(CCCCCC(=O)NCCOCCOCCOCCOCCC(N)=O)C2=O)cc(OC)c1OC (stereo partly drawn)
5 | 13 nM | C=CCN1CCC[C@H]1CNC(=O)c1cc(CCCSC2CC(=O)N(CCCCCC(=O)N[C@H](C(=O)N[C@@H](CCC(N)=O)C(=O)N[C@@H](CCCNC(=N)N)C(=O)N[C@@H](CCCCN)C(=O)N[C@@H](CCCNC(=N)N)C(=O)N[C@@H](CCC(N)=O)C(=O)N[C@@H](CCCCN)C(=O)N[C@@H](CC(C)C)C(=O)N[C@@H](CCSC)C(=O)N3CCC[C@H]3C(=O)O)C(C)C)C2=O)cc(OC)c1OC (stereo partly drawn) (X1-VQRKRQKLMP-OH)
6 | 30.3 nM | C=CCN1CCC[C@H]1CNC(=O)c1cc(CCCSC2CC(=O)N(CCCCCC(=O)NCCOCCOCC(=O)N[C@@H](Cc3cnc[nH]3)C(=O)N[C@@H](C)C(=O)N[C@H](C(=O)N[C@@H](Cc3ccc(O)cc3)C(=O)N3CCC[C@H]3C(=O)N[C@@H](CCCNC(=N)N)C(=O)N[C@@H](Cc3cnc[nH]3)C(=O)O)[C@@H](C)CC)C2=O)cc(OC)c1OC (stereo partly drawn)
7 | 27.3 nM | C=CCN1CCC[C@H]1CNC(=O)c1cc(CCCSC2CC(=O)N(CCCCCC(=O)N[C@H](C(=O)N[C@@H](Cc3cnc[nH]3)C(=O)N[C@@H](CCCNC(=N)N)C(=O)N3CCC[C@H]3C(=O)N3CCC[C@H]3C(=O)N[C@@H](CCSC)C(=O)N[C@@H](Cc3c[nH]c4ccccc34)C(=O)N[C@@H](CO)C(=O)N3CCC[C@H]3C(=O)N[C@H](C(=O)N[C@@H](Cc3c[nH]c4ccccc34)C(=O)N3CCC[C@H]3C(=O)O)C(C)C)[C@@H](C)O)C2=O)cc(OC)c1OC (stereo partly drawn) (X1-THRPPMWSPVWP-OH)
8 | 21.5 nM | C=CCN1CCC[C@H]1CNC(=O)c1cc(CCCSC2CC(=O)N(CCCCCC(=O)NCC(=O)N[C@@H](CCCNC(=N)N)C(=O)N[C@@H](CCCCN)C(=O)N[C@@H](CCCCN)C(=O)N[C@@H](CCCNC(=N)N)C(=O)N[C@@H](CCCNC(=N)N)C(=O)N[C@@H](CCC(N)=O)C(=O)N[C@@H](CCCNC(=N)N)C(=O)N[C@@H](CCCNC(=N)N)C(=O)N[C@@H](CCCNC(=N)N)C(=O)N3CCC[C@H]3C(=O)N3CCC[C@H]3C(=O)N[C@@H](CCC(N)=O)C(=O)O)C2=O)cc(OC)c1OC (stereo partly drawn)
